Experimental data as given in patent US7091357B2, “Chain-modified pyridino-N substituted nicotine compounds for use in the treatment of CNS pathologies” (University of Kentucky Research Foundation, priority 2001, dated 2006).
Counter-ions that a name gives are not always drawn.

The compounds below were run on putative α3β2* receptor subtype (assay: Inhibition of S-(−)-NIC-evoked [3H]-DA release from rat striatal slices). Details: rat striatal slices superfused 60 minutes with analog prior to NIC (10 μM).
Assay type: cell-based
Description: Rat striatal slices (500 μm thickness, 6–8 mg wet weight) were incubated for 30 minutes in Kreb's buffer (118 mM NaCl, 4.7 mMKCl, 1.2 mM MgCl2, 1.0 mM NaH2PO4, 1.3 mM CaCl2, 11.1 mM glucose, 25 mM NaHCO3, 0.11 mM L-ascorbic acid, and 0.004 mM disodium EDTA; pH 7.4, and saturated with 95% O2/5% CO2) in a metabolic shaker at 34° C. Slices were rinsed with 15 ml of fresh buffer and incubated for an additional 30 minutes in fresh buffer containing 0.1 μM [^3]H-DA (6 slices/3 ml). Subsequently, slices were rinsed with 15 ml of fresh buffer and transferred to a glass superfusion chamber. Slices were superfused (1.0 ml/min) for 60 minutes with Kreb's buffer containing nomifensine (10 μM) and pargyline (10 μM) and maintained at 34° C., pH 7.4, with continual aeration (95% O2/5% CO2). Two five minute samples (5 ml each) were collected to determine basal outflow of [^3H]-DA. […] Subsequently, S-(−)-nicotine (10 μM) was added to the buffer and an additional 12 consecutive five minute samples were collected. At the end of the experiment, each slice was solubilized and the [^3H] content of the tissue determined.
Radioactivity in the superfusate and tissue samples was determined by liquid scintillation spectroscopy. Fractional release for each sample was calculated by dividing by the total tritium present in the tissue at the time of sample collection, and was expressed as a percentage of total tissue tritium. […] The sum of the increase in collected tritium resulting from either exposure to the test-compound or exposure to nicotine in the absence and presence of the test compound equaled total [^3H]overflow. [^3H]Overflow was calculated by subtracting the [^3H]outflow during an equivalent period of prestimulation from the values in samples collected during and after drug exposure. Inasmuch as the radiolabelled compounds were not separated and identified, the tritium collected in superfusate is referred to as either [^3H]outflow or [^3 H]overflow, rather than as [^3H]-DA. [^3H]Overflow primarily represents [^3H]-DA in the presence of nomifensine and pargyline in the superfusion buffer.
In these experiments, striatal slices were superfused for 60 minutes with various concentrations of the analogs prior to NIC (10 μM) exposure. Antagonist activity was evaluated by comparing the NIC-evoked [^3H]overflow in the absence and presence of the analogs.

| Compound | IC50 |
| --- | --- |
| CCCCCCC#CCC[n+]1cccc([C@@H]2CCCN2C)c1 [NDNB-3y, (S)-1-Dec-3-ynyl-3-(1-methyl-pyrrolidin-2-yl)-pyridinium bromide] | 2.59 µM |
| CCCCC/C=C\CCC[n+]1cccc([C@@H]2CCCN2C)c1 [NDNB-4c, (S)-cis-1-Dec-4-enyl-3-(1-methyl-pyrrolidin-2-yl)-pyridinium bromide hydrobromide salt] | 1.48 µM |
| CCCCC/C=C/CCC[n+]1cccc([C@@H]2CCCN2C)c1 [NDNB-4t, (S)-trans-1-Dec-4-enyl-3-(1-methyl-pyrrolidin-2-yl)-pyridinium bromide] | 0.33 µM |
| CCCCCCCCCC[n+]1cccc([C@@H]2CCCN2C)c1 [NDNI, N-n-decylnicotinium iodide, reference compound] | > 100 µM |
| CCCC/C=C\CC[n+]1cccc([C@@H]2CCCN2C)c1 [NONB-3c, (S)-cis-3-(1-Methyl-pyrrolidin-2-yl)-1-oct-3-enyl-pyridinium bromide hydrobromide salt] | 2.02 µM |
| CCCC/C=C/CC[n+]1cccc([C@@H]2CCCN2C)c1 [NONB-3t, (S)-trans-3-(1-Methyl-pyrrolidin-2-yl)-1-oct-3-enyl-pyridinium bromide hydrobromide salt] | 3.47 µM |
| CCCCC#CCC[n+]1cccc([C@@H]2CCCN2C)c1 [NONB-3y, (S)-3-(1-Methyl-pyrrolidin-2-yl)-1-oct-3-ynyl-pyridinium bromide] | 1.68 µM |
| CC(C)=CCCCCC[n+]1cccc([C@@H]2CCCN2C)c1 [NONB-6e7M, (S)-1-(7-Methyl-oct-6-enyl)-3-(1-methyl-pyrrolidin-2-yl)-pyridinium bromide hydrobromide] | 1.99 µM |
| CC(C)CCCCCC[n+]1cccc([C@@H]2CCCN2C)c1 [NONB-7M, (S)-1-(7-Methyl-octyl)-3-(1-methyl-pyrrolidin-2-yl)-pyridinium bromide hydrobromide salt] | > 100 µM |
| C=CCCCCCC[n+]1cccc([C@@H]2CCCN2C)c1 [NONB-7e, (S)-3-(1-Methyl-pyrrolidin-2-yl)-1-oct-7-enyl-pyridinium bromide] | 2.61 µM |
| CCCCCCCC[n+]1cccc([C@@H]2CCCN2C)c1 [NONI, N-n-octylnicotinium iodide, reference compound] | 0.62 µM |

Each compound was assayed against T1, Rat Striatal Nicotinic Acetylcholine Receptors (Rattus norvegicus, UniProt P09483+P12390) (assay: [3H]-NIC binding assay, rat striatal membranes). Details: 3 nM [3H]-NIC, at least 3 independent experiments, read-out: Ki, displacement of [3H]-NIC binding.
T1 construct: from tissue; host or cells: rat striatal membranes
T1 sequence (P09483 31-630): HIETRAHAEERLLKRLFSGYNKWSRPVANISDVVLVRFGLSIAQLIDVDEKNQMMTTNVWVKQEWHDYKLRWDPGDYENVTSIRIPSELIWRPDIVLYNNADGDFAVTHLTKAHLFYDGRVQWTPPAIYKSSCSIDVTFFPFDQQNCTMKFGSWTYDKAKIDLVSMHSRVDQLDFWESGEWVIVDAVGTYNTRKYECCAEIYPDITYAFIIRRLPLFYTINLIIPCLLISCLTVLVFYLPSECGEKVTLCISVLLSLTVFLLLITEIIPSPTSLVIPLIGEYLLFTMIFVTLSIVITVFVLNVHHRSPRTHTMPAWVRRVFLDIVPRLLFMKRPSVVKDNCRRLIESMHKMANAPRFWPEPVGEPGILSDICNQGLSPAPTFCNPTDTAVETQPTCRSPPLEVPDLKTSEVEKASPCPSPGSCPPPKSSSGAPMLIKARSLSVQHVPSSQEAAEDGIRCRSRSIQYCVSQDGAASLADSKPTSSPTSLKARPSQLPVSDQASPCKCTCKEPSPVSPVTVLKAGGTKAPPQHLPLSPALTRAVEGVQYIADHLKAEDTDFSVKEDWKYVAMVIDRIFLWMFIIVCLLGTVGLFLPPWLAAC
T1 sequence (P12390 25-500): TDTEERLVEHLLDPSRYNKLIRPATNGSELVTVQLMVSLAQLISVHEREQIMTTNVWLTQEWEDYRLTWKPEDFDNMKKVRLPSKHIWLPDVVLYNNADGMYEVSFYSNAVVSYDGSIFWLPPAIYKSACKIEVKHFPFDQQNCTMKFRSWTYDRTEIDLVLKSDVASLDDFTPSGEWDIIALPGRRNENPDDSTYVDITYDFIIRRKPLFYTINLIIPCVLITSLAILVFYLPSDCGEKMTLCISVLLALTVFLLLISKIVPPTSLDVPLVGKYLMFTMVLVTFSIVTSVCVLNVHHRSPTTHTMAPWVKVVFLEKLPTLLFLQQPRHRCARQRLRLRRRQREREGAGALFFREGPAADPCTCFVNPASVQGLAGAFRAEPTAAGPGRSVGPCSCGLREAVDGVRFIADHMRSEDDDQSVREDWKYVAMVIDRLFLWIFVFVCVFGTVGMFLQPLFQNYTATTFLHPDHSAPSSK
Description: Striata from two rats were dissected, pooled, and homogenized with a Tekmar polytron in 10 volumes of ice-cold modified Krebs-HEPES buffer (20 mM HEPES, 118 mM NaCl, 4.8 mM KCl, 2.5 mM CaCl2, 1.2 mM MgSO4, adjusted to pH 7.5). The homogenates were incubated at 37° C. for 5 minutes and centrifuged at 15,000 g for 20 minutes. The pellet was resuspended in 10 volumes of ice-cold MilliQ water, incubated for 5 minutes at 37° C., and centrifuged at 15,000 g for 20 mm. The second pellet was then resuspended in 10 volumes of fresh ice-cold 10% Krebs-HEPES buffer, incubated at 37° C., and centrifuged at 15,000 g for 20 minutes. The latter sequence of resuspension, incubation, and rentrifugation was repeated. The pellet was frozen under fresh 10% Krebs-HEPES buffer and stored at −40° C. until assayed. Upon assay, the pellet was resuspended in the Krebs-HEPES buffer, incubated at 37° C. for 5 minutes, and centrifuged at 15,000 g for 20 mm. The final pellet was resuspended in 3.6 ml ice-cold MilliQ water which provided for approximately 200 μg protein per 100 μl aliquot. Competition assays were performed in triplicate in a final volume of 200 μl Krebs-HEPES buffer containing 250 mmol Tris buffer (pH 7.5 at 4° C.). […] After a 90 min incubation at 4° C., reactions were terminated by dilution of the samples with 3 ml of ice-cold Krebs-HEPES buffer followed immediately by filtration through Whatman GF/B glass fiber filters (presoaked in 0.5% polyethyleneimine) using a Brandel Cell Harvester. Filters were rinsed three times with 3 ml of ice-cold Krebs-HEPES buffer, transferred to scintillation vials, and 5 ml scintillation cocktail (Research Products International Corp., Mt. Prospect, Ill.) added. Nonspecific binding determined in triplicate was defined as binding in the presence of 10 μM NIC. Binding parameters were determined using the weighted, least squares nonlinear regression analysis.

| Compound | Ki |
| --- | --- |
| CN1CCC[C@H]1c1ccc[n+](CCCCCCC2CCC2)c1 [NCyNB-4, (S)-1-(6-Cyclobutyl-hexyl)-3-(1-methyl-pyrrolidin-2-yl)pyridinium bromide hydrobromide salt] | 7.2 µM |
| CN1CCC[C@H]1c1ccc[n+](CCCCCCC2CCCC2)c1 [NCyNB-5, (S)-1-(6-Cyclopentyl-hexyl)-3-(1-methyl-pyrrolidin-2-yl)-pyridinium bromide hydrobromide salt] | 5.54 µM |
| CN1CCC[C@H]1c1ccc[n+](CCCCCCC2CCCCC2)c1 [NCyNB-6, (S)-1-(6-Cyclohexyl-hexyl)-3-(1-methyl-pyrrolidin-2-yl)-pyridinium bromide hydrobromide salt] | 4.56 µM |
| CCCCCCC#CCC[n+]1cccc([C@@H]2CCCN2C)c1 [NDNB-3y, (S)-1-Dec-3-ynyl-3-(1-methyl-pyrrolidin-2-yl)-pyridinium bromide] | 0.81 µM |
| CCCCC/C=C\CCC[n+]1cccc([C@@H]2CCCN2C)c1 [NDNB-4c, (S)-cis-1-Dec-4-enyl-3-(1-methyl-pyrrolidin-2-yl)-pyridinium bromide hydrobromide salt] | 7.79 µM |
| CCCCC/C=C/CCC[n+]1cccc([C@@H]2CCCN2C)c1 [NDNB-4t, (S)-trans-1-Dec-4-enyl-3-(1-methyl-pyrrolidin-2-yl)-pyridinium bromide] | 0.32 µM |
| CCCCCCCCCC[n+]1cccc([C@@H]2CCCN2C)c1 [NDNI, N-n-decylnicotinium iodide, reference compound] | 0.093 µM |
| CCOCCOCC[n+]1cccc([C@@H]2CCCN2C)c1 [NONB-3O6O, (S)-1-[2-(2-Ethoxy-ethoxy)-ethyl]-3-(1-methyl-pyrrolidin-2-yl)-pyridinium bromide] | 1.2 µM |
| CCCC/C=C\CC[n+]1cccc([C@@H]2CCCN2C)c1 [NONB-3c, (S)-cis-3-(1-Methyl-pyrrolidin-2-yl)-1-oct-3-enyl-pyridinium bromide hydrobromide salt] | 0.086 µM |
| CCCC/C=C/CC[n+]1cccc([C@@H]2CCCN2C)c1 [NONB-3t, (S)-trans-3-(1-Methyl-pyrrolidin-2-yl)-1-oct-3-enyl-pyridinium bromide hydrobromide salt] | 3.97 µM |
| CCCCC#CCC[n+]1cccc([C@@H]2CCCN2C)c1 [NONB-3y, (S)-3-(1-Methyl-pyrrolidin-2-yl)-1-oct-3-ynyl-pyridinium bromide] | 0.2 µM |
| CC(C)=CCCCCC[n+]1cccc([C@@H]2CCCN2C)c1 [NONB-6e7M, (S)-1-(7-Methyl-oct-6-enyl)-3-(1-methyl-pyrrolidin-2-yl)-pyridinium bromide hydrobromide] | 0.45 µM |
| CC(C)CCCCCC[n+]1cccc([C@@H]2CCCN2C)c1 [NONB-7M, (S)-1-(7-Methyl-octyl)-3-(1-methyl-pyrrolidin-2-yl)-pyridinium bromide hydrobromide salt] | 0.44 µM |
| C=CCCCCCC[n+]1cccc([C@@H]2CCCN2C)c1 [NONB-7e, (S)-3-(1-Methyl-pyrrolidin-2-yl)-1-oct-7-enyl-pyridinium bromide] | 0.45 µM |

What follows are compounds tested against T2, α7 neuronal nicotinic acetylcholine receptor subtype (Rattus norvegicus, UniProt Q05941) (assay: [3H]-MLA binding assay, rat brain membranes). Details: rat brain membranes, 2.5 nM [3H]-MLA; read-out: Ki, displacement of [3H]-MLA binding.
T2 construct: from tissue; host or cells: rat brain membranes (without cortex, striatum and cerebellum)
T2 sequence (Q05941 23-502): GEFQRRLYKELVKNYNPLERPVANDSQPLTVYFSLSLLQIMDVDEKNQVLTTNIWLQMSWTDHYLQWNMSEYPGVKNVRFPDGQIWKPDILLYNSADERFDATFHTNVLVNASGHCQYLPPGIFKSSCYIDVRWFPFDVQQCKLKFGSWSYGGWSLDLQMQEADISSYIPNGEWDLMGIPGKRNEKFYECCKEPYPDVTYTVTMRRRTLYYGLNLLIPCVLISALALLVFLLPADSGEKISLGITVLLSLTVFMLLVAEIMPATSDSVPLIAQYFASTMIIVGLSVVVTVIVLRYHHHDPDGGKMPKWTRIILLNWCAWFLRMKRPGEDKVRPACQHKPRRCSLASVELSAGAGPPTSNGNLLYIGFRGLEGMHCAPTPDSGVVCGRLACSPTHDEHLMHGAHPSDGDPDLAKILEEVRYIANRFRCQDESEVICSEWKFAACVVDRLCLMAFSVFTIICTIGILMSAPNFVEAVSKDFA
Description: Rat brain tissue (without cortex, striatum and cerebellum) was homogenized with a Tekmar Polytron (setting 40) in 20 volumes of ice-cold hypotonic buffer (2 mM HEPES, 14.4 mM NaCl, 0.15 mM KCl, 0.2 mM CaCl2 and 0.1 mM MgSO4, pH=7.5). The homogenate was incubated at 37° C. for 10 minutes and centrifuged at 25,000×g for 15 minutes at 40° C. The pellet was washed 3 times more by resuspension in the 20 volumes of the same buffer and centrifugation at the above parameters. The final pellet was stored at −20° C. under 4.6 ml of the incubation buffer and was suspended just before the incubation with radioligand.
The binding of [^3H]methyllycaconitine ([^3H]MLA), a probe for the α7 neuronal nicotinic acetylcholine receptor subtype, was determined using a modification of the method of Davies et al., “Characterisation of the binding of [^3H]methyllycaconitine: a new radioligand for labelling α7-type neuronal nicotinic acetylcholine receptors”, Neuropharmacology, 38, 679–690 (1999). [^3H]-MLA (25.4 Ci/mmol) was purchased from Tocris Cookson Ltd., Bristol, U.K. Binding was performed in duplicate, in a final volume of 250 μL of the incubation medium, containing 20 mM HEPES, 144 mM NaCl, 1.5 mM KCl, 2 mM CaCl2, 1 mM MgSO4 and 0.05% BSA, pH=7.5. Reaction was initiated by the addition of 100 μl of membrane suspension to the samples containing a desired concentration of test compounds and 2.5 nM [^3H]-MLA (final concentration) and incubated for 2 hours at room temperature. Total binding was measured in the absence of unlabelled ligand, and nonspecific binding was determined in the presence of 1 μM unlabelled MLA. The binding reaction was terminated by dilution of samples with 3 ml of ice-cold incubation buffer followed by immediate filtration through presoaked in 0.5% polyethylenimine glass fiber filters (S&S, grade #32) using a Brandel harvester system. Filters were rinsed three times with 3 ml of ice-cold buffer, transferred to scintillation vials and 4 ml of scintillation cocktail was added.

| Compound | Ki |
| --- | --- |
| CN1CCC[C@H]1c1ccc[n+](CCCCCCC2CCC2)c1 [NCyNB-4, (S)-1-(6-Cyclobutyl-hexyl)-3-(1-methyl-pyrrolidin-2-yl)pyridinium bromide hydrobromide salt] | 30.3 µM |
| CN1CCC[C@H]1c1ccc[n+](CCCCCCC2CCCC2)c1 [NCyNB-5, (S)-1-(6-Cyclopentyl-hexyl)-3-(1-methyl-pyrrolidin-2-yl)-pyridinium bromide hydrobromide salt] | 88.7 µM |
| CN1CCC[C@H]1c1ccc[n+](CCCCCCC2CCCCC2)c1 [NCyNB-6, (S)-1-(6-Cyclohexyl-hexyl)-3-(1-methyl-pyrrolidin-2-yl)-pyridinium bromide hydrobromide salt] | 42.7 µM |

Same assay, conditions: read-out: Ki, displacement of [3H]-MLA binding

| Compound | Ki |
| --- | --- |
| α-Bungarotoxin [reference compound] | 0.0072 µM |
